A short description of data set [1]: Static (DC) electric field induced nucleation of aged supersaturated aqueous solutions; polymorph by x-ray powder diffraction. It counts as physicochemical. Particulars: for timescale on which macroscopic crystals form: supersaturated aqueous solution subjected to static electric field; for percent of the exposed solutions that nucleated within the 10-minute exposure time: 6×10^5 V/m DC field, γ glycine. As to the method: Great care was taken to exclude dust from samples. Supersaturated solutions were generated by heating the tubes to 62-64° C. and holding them at that temperature in an ultrasonicator overnight.
A chamber was constructed consisting of two brass electrodes separated by a 5 mm insulating gap, with a hole drilled down through the center, parallel to the gap-electrode interface, with a diameter large enough to accommodate the test tube, to create a high voltage chamber. Test tubes containing the aged solutions were placed in the high voltage chamber.
A DC voltage was applied across the electrodes, large enough to produce electric fields in the range of 400,000 to 800,000 V/m. Tests tubes containing the aged solutions were placed in the high-voltage chamber. […] If crystals formed in the test tubes, the crystals were removed from the solution and dried. The structure of these crystals was analyzed by grinding up the crystal into a powder and obtaining an x-ray powder diffraction pattern.
(§1) The supersaturated solutions were in the concentration range of 5.5 to 6.0 molal. […] These solutions had supersaturations (SS) ranging from 1.85 to 2.0; SS=c/csat, where csat is the saturation concentration.
Solutions were aged for 2 to 5 weeks and exposed to a 6×10^5 V/m DC field for 10 minutes. Semi-cylindrical electrodes were constructed from a 5 cm×5 cm×5.5 cm block of brass, with the center drilled out so that the sample tubes would fit snugly, and then split in half and material removed to create a 5 mm gap, as shown in FIG. 1. […] All sharp edges were rounded in the actual electrodes. The electrodes are insulated and held firmly in position by Delrin plates, screwed together to make a covered box, with 5 mm thick spacers to hold the cylindrical electrodes at the proper spacing. There are two long narrow gaps in the insulation, matching the electrode gap 20, so that most of the length of the sample tube is visible from either side, and there is a small hole in the bottom insulating plate, with a mount for an optical fiber. A Glassman EH regulated power supply provided 0-15 kV DC.
A low power monitoring continuous-wave laser beam at a wavelength of 532 nm, defocused in one direction with a cylindrical lens to generate a pencil-shaped beam, was directed through the electrode gap 20 and illuminated the length of the sample tube. The transmitted light was imaged on white paper. Light scattered perpendicular to the beam was collected with an optical fiber attached at the bottom of the cell and monitored with a power meter.
(§2) Crystals formed in the test tubes were removed from the solution and dried. The structure of these crystals was analyzed by grinding up the crystal into a powder and obtaining an x-ray powder diffraction pattern.

The procedure of data set [2]:
as §1, §2
Towler, C. S. et al., Journal of the American Chemical Society, Vol. 126, pp. 13347-13353 (2004).

For data set [3] the following is noted: supersaturated aqueous solutions. An excerpt: Such species, when subjected to a DC electric field, will tend to migrate toward the electrode with the opposite charge, effectively increasing the supersaturation near the electrode, which in itself can be responsible for inducing nucleation.
For data set [4] the following is noted: room temperature, approximately 20° C., water; cited from earlier work.
The conditions of data set [5]: average charge on a glycine molecule is zero; cited from earlier work.

Each structure is given as a SMILES string. Like-named read-outs stand apart in the source and are kept apart here.

`C[C@H](N)C(=O)O` [L-alanine]: the “timescale on which macroscopic crystals form” value in data set [1] is recorded as “minutes”.
Consider `NCC(=O)O` [glycine], for which the “percent of the exposed solutions that nucleated within the 10-minute exposure time” value in data set [1] (1.85 SS, after 16 days aging) amounted to 24%; in data set [1] (1.9-2.0 SS, after 14 days aging), 33%; in data set [1] (1.9-2.0 SS, after 36 days aging), 40%. Also, the “% samples mixed α + γ” value turned out to be 0% in data set [1] (SS 1.85, DC field); 0% in data set [1] (SS 1.9–2.0, DC field); 0% in data set [2] (SS 1.85, Spontaneous); 27% in data set [2] (SS 1.9–2.0, Spontaneous). The “% samples pure α” value is listed as 50% in data set [1] (SS 1.85, DC field); 0% in data set [1] (SS 1.9–2.0, DC field); 86% in data set [2] (SS 1.85, Spontaneous); 13% in data set [2] (SS 1.9–2.0, Spontaneous). In addition, the “% samples pure γ” value in data set [1] (SS 1.85, DC field) is 50%; in data set [1] (SS 1.9–2.0, DC field), 100%; in data set [2] (SS 1.85, Spontaneous), 14%; in data set [2] (SS 1.9–2.0, Spontaneous), 60%. Further, the “time until crystallization observed” value in data set [1] (electric field strength 600,000 V/m) was 30 to 90 min. Besides, in data set [1] (field of 400,000 V/m, aged solutions), the “induction of nucleation by field exposure” value is “not sufficient to induce nucleation”. Besides, the “timescale on which macroscopic crystals form” value in data set [1] is listed as “hours”. In addition, the “Spontaneous nucleation rate for a ten-minute time window” value in data set [2] (1.85 SS, no field) is listed as 0.02%. Further, the “pH of aqueous glycine solutions exposed to DC fields” value in data set [3] was 6.4-6.5. Besides, the saturation concentration csat in data set [4] is reported as 3.0 molal. Besides, the “isoelectric point (pH)” value in data set [5] is given as 6.0.
